Laboratory results published in US8173654B2, “Triazolopyridazine compounds” (Janssen Pharmaceutica N.V., priority 2005, dated 2012).

What was measured:
c-Met [1] = molecular target: T1, c-Met (Homo sapiens, UniProt P08581); assay: Cell based ELISA assay for HGF stimulated c-Met phosphorylation in S114 cells; set-up: expressed in transfected cells; host or cells: S114 (murine NIH 3T3 derived); settings: read-out: c-Met Cell ELISA IC-50
Target sequence in this assay (P08581 25-1390): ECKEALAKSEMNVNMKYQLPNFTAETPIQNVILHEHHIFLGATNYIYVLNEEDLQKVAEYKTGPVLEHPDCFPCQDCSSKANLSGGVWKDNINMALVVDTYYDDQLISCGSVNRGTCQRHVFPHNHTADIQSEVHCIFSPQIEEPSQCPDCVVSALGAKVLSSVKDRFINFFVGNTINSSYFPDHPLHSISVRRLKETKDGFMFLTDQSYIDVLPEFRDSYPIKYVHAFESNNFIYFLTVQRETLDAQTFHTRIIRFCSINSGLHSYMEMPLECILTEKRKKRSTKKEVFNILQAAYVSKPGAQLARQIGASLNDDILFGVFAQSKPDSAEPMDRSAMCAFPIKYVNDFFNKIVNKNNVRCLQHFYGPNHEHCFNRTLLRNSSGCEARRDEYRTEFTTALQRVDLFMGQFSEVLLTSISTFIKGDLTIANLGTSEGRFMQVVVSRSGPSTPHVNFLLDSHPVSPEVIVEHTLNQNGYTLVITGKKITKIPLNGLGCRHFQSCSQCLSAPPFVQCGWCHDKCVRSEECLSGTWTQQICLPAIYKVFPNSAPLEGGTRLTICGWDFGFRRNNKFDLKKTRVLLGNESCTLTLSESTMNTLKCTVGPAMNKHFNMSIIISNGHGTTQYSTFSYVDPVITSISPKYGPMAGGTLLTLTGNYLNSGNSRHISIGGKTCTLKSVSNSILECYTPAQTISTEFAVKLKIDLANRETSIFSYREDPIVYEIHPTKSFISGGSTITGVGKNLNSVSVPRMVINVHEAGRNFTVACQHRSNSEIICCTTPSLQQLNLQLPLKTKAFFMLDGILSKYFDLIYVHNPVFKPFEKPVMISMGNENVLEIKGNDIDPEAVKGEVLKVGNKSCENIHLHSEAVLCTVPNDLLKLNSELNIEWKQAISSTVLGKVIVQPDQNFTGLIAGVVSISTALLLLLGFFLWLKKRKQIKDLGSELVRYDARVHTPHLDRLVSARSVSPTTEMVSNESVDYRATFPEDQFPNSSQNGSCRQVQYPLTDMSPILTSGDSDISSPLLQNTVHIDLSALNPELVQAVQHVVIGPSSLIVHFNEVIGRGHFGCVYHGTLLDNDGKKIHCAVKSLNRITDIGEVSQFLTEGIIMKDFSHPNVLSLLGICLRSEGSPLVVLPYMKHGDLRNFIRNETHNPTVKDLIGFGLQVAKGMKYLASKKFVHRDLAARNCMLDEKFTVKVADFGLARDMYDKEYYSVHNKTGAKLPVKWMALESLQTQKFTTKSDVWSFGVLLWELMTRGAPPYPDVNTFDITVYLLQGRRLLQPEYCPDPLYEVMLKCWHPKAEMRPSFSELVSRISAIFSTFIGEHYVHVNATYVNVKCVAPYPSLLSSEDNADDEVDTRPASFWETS

HepG2 cells = assay: HepG2 cellular scatter assay (HGF-induced, RT-CES impedance); assay type: cell-based; settings: Homo sapiens, 40 ng/ml HGF
Text: Human Growth Factor (HGF) and its receptor (c-Met) are involved in cellular motility. Indeed HGF was also identified as Scatter Factor (SF), based on its powerful motility effect on certain cell types. Cellular motility is critical for pathological processes of oncologic disease, most importantly, the establishment of metastatic lesions distant from the primary tumor and formation of new blood vessels (angiogenesis). One therapeutic hypothesis is that this movement of cell types may be blunted or eliminated by the use of c-Met kinase inhibitors. (See: Jiang, W. C, Martin, T. A., Parr, C., Davies, G., Matsumoto, K. and Nakamura, T. Critical Reviews in Oncology/Hematology 53 (2005) 35-69. and references cited therein.) It should also be noted that cellular motility, especially with regard to angiogenesis, is important in other disease states.
Cellular scatter was measured with a Real-Time Cell Electronic Sensing system (RT-CES), from ACEA Biosciences Inc. (San Diego, Calif.). The RT-CES system uses specialized RT-ACE microtiter plates (cat:RCD96, ACEA Biosciences Inc.) to non-invasively quantify cellular status in real-time. The interaction of cells with the surface of the plates, which are integrated with microelectronic sensor arrays, leads to the generation of a cell-electrode impedance response. A higher impedance value indicates more cell attachment and thus less cellular scatter.
50 μl of Assay Media (MEM supplemented with 10% FBS, 2 mM L-glutamine, 1.5 g/L sodium bicarbonate, 1 mM sodium pyruvate, and 0.1 mM non-essential amino acids) was added into 96-well RT-ACE plates and recorded for 30 min on the RT-CES. 50 μl of HepG2 cells (cat: HB-8065, ATCC) were added into each well ([…]). The plate was read in RT-CES and incubated for 20-24 hours. After the 20-24 hours incubation, 50 μl of Assay Media containing different concentrations of testing compounds was added into each well and incubated for 1 hour. Finally, 50 μl of Assay Media containing 160 ng/ml of HGF was added into each well (40 ng/ml in 200 μl). The plate was incubated and read in the RT-CES for 20-24 hours, with a record time every 15 minutes. The positive control was HGF without compounds and negative control was no-HGF without compound. All determinations were performed in duplicate wells and IC50 values were calculated using GraphPad Prism software (GraphPad Software; San Diego, Calif.).

c-Met [2] = molecular target: T1, c-Met; assay: Delfia autophosphorylation kinase assay on the c-Met; assay type: biochemical; set-up: The purified His6 tagged cytoplasmic domain of c-Met was diluted to a concentration of 500 ng/ml; host or cells: Sf9 insect cells (baculovirus, pFastBacHTa); settings: His6 tagged cytoplasmic domain of c-Met, 1 μM ATP; read-out: cMet Delfia autophos IC-50
Outline: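 Time-resolved fluorescence tracked autophosphorylation of the His6-tagged c-Met cytoplasmic domain, dispensed at 500 ng/ml onto nickel-chelate plates. Reaction buffer held 1 μM ATP, 10 mM MgCl2, vanadate and DTT at pH 8.0, for 1 h at room temperature.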
Target sequence in this assay (P08581 956-1390 limits assumed): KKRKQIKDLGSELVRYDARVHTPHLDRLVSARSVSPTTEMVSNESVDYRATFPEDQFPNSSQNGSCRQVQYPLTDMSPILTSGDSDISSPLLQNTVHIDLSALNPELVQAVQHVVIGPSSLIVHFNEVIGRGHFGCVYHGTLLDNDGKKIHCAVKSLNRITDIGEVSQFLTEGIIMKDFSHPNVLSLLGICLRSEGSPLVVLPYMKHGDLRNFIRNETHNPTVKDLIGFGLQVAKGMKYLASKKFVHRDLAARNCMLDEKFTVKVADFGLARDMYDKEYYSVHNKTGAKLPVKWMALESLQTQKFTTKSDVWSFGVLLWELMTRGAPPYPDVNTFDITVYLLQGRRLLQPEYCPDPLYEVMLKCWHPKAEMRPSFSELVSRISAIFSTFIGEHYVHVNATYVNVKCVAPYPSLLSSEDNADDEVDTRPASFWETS

[3] = test system: U87MG glioblastoma tumors; assay: U87MG glioblastoma tumor xenograft model (tumor growth inhibition); assay type: in vivo, athymic nude mice; settings: for decrease of mean tumor volume compared to vehicle-treated group: Day 21, p<0.001
Procedure: The U87MG glioblsatoma cell line (Piedmont Research Center LLC) expresses the c-Met receptor and responds to Human Growth Factor (HGF). This study investigated whether treatment with an inhibitor of c-Met is efficacious against the U87MG glioblastoma tumor xenograft model. This study utilized a tumor growth inhibition (TGI) assay to test per os (p.o.) compound monotherapy in groups of fifteen nude mice. A control group was treated with vehicle, 20% Hydroxypropyl Beta-Cyclodextrin (HPBCD). All treatments began on Day 1 (D1) in mice bearing established subcutaneous (s.c.) U87MG tumors.
Female athymic nude mice (Harlan) were 10-11 weeks old with a BW range of 18.1-25.0 g on D1 of the study. The animals were fed ad libitum water (reverse osmosis, 1 ppm Cl) and NIH 31 Modified and Irradiated Lab Diet® consisting of 18.0% crude protein, 5.0% crude fat, and 5.0% crude fiber. The mice were housed on irradiated ALPHA-dri® Bed-o-cobs® Laboratory Animal Bedding in static microisolators on a 12-hour light cycle at 21-22° C. (70-72° F.) and 40-60% humidity. All animals were housed in a Laboratory Animal Medicine facility that is fully accredited by the American Association for Assessment and Accreditation of Laboratory Animal Care (AAALAC). All procedures involving animals were conducted in compliance with the NIH Guide for the Care and Use of Laboratory Animals and all protocols were approved by an Internal Animal Care and Use Committee (IACUC).
Xenografts were initiated from U87MG human glioblastoma tumor fragments maintained by serial transplantation in athymic nude mice. Each test mouse received a subcutaneous U87MG tumor fragment (1 mm^3) implanted in the right flank, and the growth of tumors was monitored as the average size approached 200 mm^3. Twelve days later, on Day 1 of the study, the animals were sorted into 4 groups (n=12-15 mice/group) with individual tumor volumes ranging from 172-352 mm^3 and group mean tumor volumes of 216 mm^3. Tumor volume was calculated using the formula:
[formula] where w=width and l=length in mm of the tumor. Tumor weight may be estimated with the assumption that 1 mg is equivalent to 1 mm^3 of tumor volume. Drug Treatment
Dosing solutions of compounds of the present invention were prepared fresh weekly in a vehicle consisting of 20% Hydroxypropyl Beta-Cyclodextrin (HPBCD) in water. In all groups, the dosing volume of 0.2 mL/20-g mouse was scaled to the body weight of each animal. Doses were given to allow for the HCl salt form of the compound.
TGI was calculated from the difference between the median tumor volumes of vehicle-treated and drug-treated mice, expressed as a percentage of the median tumor volume of the vehicle-treated control group, by the following relation:
The MTV (n) is defined as the median tumor volume (MTV) for the number of animals, n, remaining in the study on that day.
Animals were weighed daily for the first five days of the study and then twice weekly. The mice were examined frequently for overt signs of any adverse, drug-related side effects, and clinical signs of toxicity were recorded when observed. Acceptable toxicity is defined as a group mean body-weight (BW) loss of less than 20% during the study, and not more than one treatment-related (TR) death among ten animals. A death is classified as TR if it is attributable to treatment side effects as evidenced by clinical signs and/or necropsy, or due to unknown causes during the dosing period or within 10 days of the last dose. A death is classified as non treatment-related (NTR) if there is no evidence that the death was related to drug side effects. A death is classified as non treatment-related unknown (NTRu) if the cause of death is unknown.
The Mann-Whitney U-test, for analysis of medians, was used to determine the statistical significance of the difference between the MTVs. Prism 3.03 (GraphPad) for Windows was used for the statistical analyses and graphic presentations. […]

IC50 (c-Met [1])	IC50 (HepG2 cells)	IC50 (c-Met [2])	Structure (SMILES)	decrease of mean tumor volume compared to vehicle-treated group ([3]; 30 mg/kg p.o. b.i.d., 21 consecutive days)	decrease of mean tumor volume compared to vehicle-treated group ([3]; 50 mg/kg p.o. b.i.d., 21 consecutive days)	tumor regression ([3]; 50 mg/kg p.o. b.i.d., 21 days)	inhibition of growth of U87MG tumors ([3]; 30 and 50 mg/kg p.o. b.i.d., 21 consecutive days)
4 nM	64 nM	2 nM	CS(=O)(=O)N1CCN(C(=O)c2ccc(-c3ccc4nnc(C(F)(F)c5ccc6ncccc6c5)n4n3)s2)CC1 [Example 98, {5-[3-(Difluoro-quinolin-6-yl-methyl)-[1,2,4]triazolo[4,3-b]pyridazin-6-yl]-thiophen-2-yl}-(4-methanesulfonyl-piperazin-1-yl)-methanone]				
3 nM	1160 nM	3 nM	CN1CCN(C(=O)c2ccc(-c3ccc4nnc(C(F)(F)c5ccc6ncccc6c5)n4n3)s2)CC1 [Example 97, {5-[3-(Difluoro-quinolin-6-yl-methyl)-[1,2,4]triazolo[4,3-b]pyridazin-6-yl]thiophen-2-yl}-(4-methyl-piperazin-1-yl)-methanone]				
34 nM	715 nM	2.8 nM	Cc1cc(-c2ccc3nnc(C(F)(F)c4ccc5ncccc5c4)n3n2)ccn1 [Example 86, 6-{Difluoro-[6-(2-methyl-pyridin-4-yl)-[1,2,4]triazolo[4,3-b]pyridazin-3-yl]-methyl}-quinoline]				
12 nM	287 nM	1 nM	FC(F)(c1ccc2ncccc2c1)c1nnc2ccc(-c3ccncc3)nn12 [Example 60, 6-[Difluoro-(6-pyridin-4-yl-[1,2,4]triazolo[4,3-b]pyridazin-3-yl)-methyl]-quinoline]				
34 nM	1100 nM	2 nM	CS(=O)(=O)n1cc(-c2ccc3nnc(C(F)(F)c4ccc5ncccc5c4)n3n2)cn1 [Example 99, 6-{Difluoro-[6-(1-methanesulfonyl-1H-pyrazol-4-yl)-[1,2,4]triazolo[4,3-b]pyridazin-3-yl]-methyl}-quinoline]				
			Cn1cc(-c2ccc3nnc(Cc4ccc5ncccc5c4)n3n2)cn1 [Example 1, 6-[6-(1-Methyl-1H-pyrazol-4-yl)-[1,2,4]triazolo[4,3-b]pyridazin-3-ylmethyl]-quinoline]	66%	97%	Tumor regression was observed	statistically significant, dose-dependent inhibition of growth
140 nM		25 nM	Cn1cc(-c2ccc3nnc(Cc4ccc5ncncc5c4)n3n2)cn1 [Example 70, 6-[6-(1-Methyl-1H-pyrazol-4-yl)-[1,2,4]triazolo[4,3-b]pyridazin-3-ylmethyl]-quinazoline]				
640 nM		30 nM	CN(C)c1nc2ccc(Cc3nnc4ccc(-c5cnn(C)c5)nn34)cc2s1 [Example 94, Dimethyl-{6-[6-(1-methyl-1H-pyrazol-4-yl)-[1,2,4]triazolo[4,3-b]pyridazin-3-ylmethyl]-benzothiazol-2-yl}-amine]				
37 nM	543 nM	2 nM	CCCc1ncc(-c2ccc3nnc(C(F)(F)c4ccc5ncccc5c4)n3n2)s1 [Example 104, 6-{Difluoro-[6-(2-propyl-thiazol-5-yl)-[1,2,4]triazolo[4,3-b]pyridazin-3-yl]-methyl}-quinoline]				
0.5 nM		0.1 nM	[O-][n+]1cccc2cc(Cc3nnc4ccc(-c5cn[nH]c5)nn34)ccc21 [Example 73, 6-[6-(1H-Pyrazol-4-yl)-[1,2,4]triazolo[4,3-b]pyridazin-3-ylmethyl]-quinolin-1-ol]				
> 1000 nM		17 nM	O=c1[nH]cnc2ccc(Cc3nnc4ccc(-c5cccnc5)nn34)cc12 [Example 69, 6-(6-Pyridin-3-yl-[1,2,4]triazolo[4,3-b]pyridazin-3-ylmethyl)-3H-quinazolin-4-one]				
48 nM		1.6 nM	CCCn1cc(-c2ccc3nnc(Cc4ccc5ncccc5c4)n3n2)cn1 [Example 9, 6-[6-(1-Propyl-1H-pyrazol-4-yl)-[1,2,4]triazolo[4,3-b]pyridazin-3-ylmethyl]-quinoline]				
9 nM		15 nM	c1csc(-c2ccc3nnc(Cc4ccc5c(c4)CCO5)n3n2)c1 [Example 22, 3-(2,3-Dihydro-benzofuran-5-ylmethyl)-6-thiophen-2-yl-[1,2,4]triazolo[4,3-b]pyridazine]				
